“Also recorded” adds a separate entry of the source.
Columns and labels:
Format in all cases: biochemical, Trametes versicolor
[1] = tested on: T. versicolor laccase; experiment: Biocompatibility screening of AILs with laccase (ABTS oxidation assay); details: for inhibitory effect on laccase (comparison among the 3 ILs): varied concentration of laccase and ILs
Procedure: All solutions used were adjusted to pH 5.0 prior to beginning experiments. Appropriate concentrations of laccase and AILs were mixed and added to clear, flat bottom 96-well Costar Assay Plates (Corning Inc.; Kenneburk, Me.). ABTS was added for a final concentration of 2 mM. Sodium citrate buffer (1.0 M, pH 5.0) was added for a final well volume of 250 μL. ABTS oxidation was measured for 5 minutes at 40° C. Absorbance readings were taken every 30 seconds at a wavelength of 420 nm using a SpectraMax M2 plate reader from Molecular Devices (Sunnyvale, Calif., USA). Plates were shaken for 5 seconds prior to initial reading and 3 seconds before each reading to ensure homogeneous well solutions.

[2] = tested on: T. versicolor laccase; experiment: AIL inhibition: Michaelis-Menten and Lineweaver-Burke curves of laccase; details: from changes in Vmax and Km with AIL concentration; ABTS substrate, 0.30 μg laccase
Procedure: Michaelis-Menten curves were generated by mixing appropriate concentrations of AILs and ABTS with 0.30 μg laccase in 96-well plates. Sodium citrate buffer (1.0 M, pH 5.0) was added for a final well volume of 250 μL. ABTS oxidation was measured using the same method as the initial screening. Laccase activity (V) was measured as moles of ABTS oxidized per minute per gram of laccase (mol ABTS·min^−1·g^−1 lac.) and Km was measured in μmol ABTS. Activity was fit to the Michaelis-Menten curve, shown in equation 1. [formula] These curves were linearized using the Lineweaver-Burke method, resulting in equation 2. [formula] Equation 2 was used to solve for Km and Vmax of laccase in known concentrations of AILs.

[3] = tested on: T. versicolor laccase; experiment: Lignin model compound (GGE) depolymerization by laccase in AILs, HPLC; details: 2% [C2C1Im][OAc] or 1% [Ch][Lys], 40° C., O2 30 psi, 2 hours
Procedure: Appropriate concentrations of AIL, ABTS, laccase, and GGE were mixed. Sodium citrate buffer (1.0 M, pH 5.0) was added for a final reaction volume of 1 mL. Reactions were carried out in a batch reactor at 40° C. Pure O2 was flowed through the reactor for 1 minute. The release valve of the reactor was closed, pure O2 was flowed in at a pressure of 30 psi, and the reaction was allowed to proceed for an additional 2 hours. Product profiles were analyzed by HPLC using the method as described previously (Deng, Zhang et al. 2015). Water and acetonitrile (8:2 v/v) was used as a mobile phase. Mobile phase was flowed at 0.5 mL min^−1 for 30 minutes through an Ultimate 3000 HPLC system (Dionex Corporation, Sunnyvale, Calif., USA) equipped with ultraviolet (UV) detector. Separation was achieved through use of a Zorbax Eclipse XDB-C18 column (5 μm particle size, 150×4.6 mm i.d., Agilent Technologies, Santa Clara, Calif., USA) at 25° C. Elution profile of column was measured by UV absorbance at 280 nm.

Row | type of inhibition of laccase [2] | degradation of GGE by laccase in AIL ([3]; with mediator ABTS) | degradation of GGE by laccase in AIL ([3]; without ABTS, 10% [DEA][HSO4]) | Structure (SMILES) | loss of laccase activity ([1]; 2% IL, ABTS assay) | inhibitory effect on laccase (comparison among the 3 ILs) ([1]; ABTS assay, acetate) | loss of laccase activity ([1]; 2% AIL, ABTS oxidation, pH 5.0, 40° C.) [%] | inhibitory effect on laccase (comparison among the 3 ILs) ([1]; ABTS assay) | loss of laccase activity ([1]; 10% IL, ABTS assay)
1 | mixed inhibition | able to break down GGE | not capable of breaking down GGE | CC(=O)[O-].CCn1cc[n+](C)c1 [[C2C1Im][OAc], 1-ethyl-3-methylimidazolium acetate] | significant loss of laccase activity | more inhibitory to laccase | – | – | –
2 | mixed inhibition | able to break down GGE | not capable of breaking down GGE | C[N+](C)(C)CCO.NCCCC[C@H](N)C(=O)[O-] [[Ch][Lys], cholinium lysinate] | – | – | > 50 | more inhibitory | –

Row | Structure (SMILES) | type of inhibition of laccase [2] | degradation of GGE by laccase in AIL ([3]; with mediator ABTS) | degradation of GGE by laccase in AIL ([3]; without ABTS, 10% [DEA][HSO4]) | loss of laccase activity ([1]; 2% IL, ABTS assay) | inhibitory effect on laccase (comparison among the 3 ILs) ([1]; ABTS assay, acetate) | loss of laccase activity ([1]; 2% AIL, ABTS oxidation, pH 5.0, 40° C.) [%] | inhibitory effect on laccase (comparison among the 3 ILs) ([1]; ABTS assay) | loss of laccase activity ([1]; 10% IL, ABTS assay)
3 | CCNCC.O=S(=O)(O)O [[DEA][HSO4], diethyl ammonium hydrogen sulfate] | noncompetitive inhibition | – | capable of degrading GGE | – | – | – | most biocompatible; also recorded: did not impede the ability of laccase to oxidize ABTS | losing little of its activity; also recorded: negligible to modest loss of laccase activity

Reference: patent US10723859B2, “Lignin valorization in ionic liquids and deep eutectic solvent via catalysis and biocatalysis” (University of Kentucky Research Foundation, priority 2017, dated 2020)
